# How the values were obtained:
# [1] = tested on: Plasmodium falciparum; assay: Antimalarial activity against CQ-sensitive Plasmodium falciparum 3D7 incubated for 72 hrs by SYBR Green-1 dye based fluorescence assay; assay type: functional, organism-based
# [2] = tested on: Plasmodium chabaudi; assay: Antimalarial activity against Plasmodium chabaudi ASS infected in NIH mouse assessed as inhibition of parasitemia at 10 mg/kg, po qd for 4 days starting from 4 hrs post-parasite inoculation and measured at 24 hrs after last-drug treatment by Peter's 4-day suppressive test relative to control; assay type: functional; details: 96 h
# [3] = Plasma concentration in NIH mouse infected with Plasmodium chabaudi ASS at 10 mg/kg, po qd for 4 days starting from 4 hrs post-parasite inoculation and measured at 1 hr post-dosing on day 4 by LC/MS analysis; assay type: ADME, organism-based; details: dose 10 mg/kg/day, time 4 day
# [4] = Plasma concentration in NIH mouse infected with Plasmodium chabaudi ASS at 10 mg/kg, po qd for 4 days starting from 4 hrs post-parasite inoculation and measured at 6 hrs post-dosing on day 4 by LC/MS analysis; assay type: ADME, organism-based; details: dose 10 mg/kg/day, time 4 day
# [5] = Plasma concentration in NIH mouse infected with Plasmodium chabaudi ASS at 10 mg/kg, po qd for 4 days starting from 4 hrs post-parasite inoculation and measured at 24 hrs post-dosing on day 4 by LC/MS analysis; assay type: ADME, organism-based; details: dose 10 mg/kg/day, time 4 day
# [6] = Plasmodium falciparum, 3D7, 72 h
"IC50 [1, 6] [nM]",SMILES,also measured
120,CN(C)c1ccc(CC(=O)N[C@@H]2CNC[C@H]2c2ccc(C(C)(C)C)cc2)cc1,–
760,COc1cccc(CC(=O)N[C@H]2CNC[C@@H]2c2ccc(C(F)(F)F)cc2)c1 (racemic),–
–,CCN(CC)CCCC(C)Nc1ccnc2cc(Cl)ccc12 (configuration not stated) [CHLOROQUINE],inhibition in vivo at 10 mg/kg/day [2]: 99.9%; concentration at 96 h [3]: 80.7 nM; concentration at 96 h [4]: 83.4 nM; concentration at 96 h [5]: 68.6 nM
4600,CN(C)c1ccc(CC(=O)N[C@@H]2CNC[C@H]2c2ccc(-c3ccccc3)cc2)cc1,–
350,COc1ccc(CC(=O)N[C@H]2CNC[C@@H]2c2ccc(C(F)(F)F)cc2)cc1 (racemic),–
140,CN(C)c1ccc(CC(=O)N[C@@H]2CNC[C@H]2c2cc3ccccc3o2)cc1,–
2900,Nc1ccc(CC(=O)N[C@H]2CNC[C@@H]2c2ccc(C(F)(F)F)cc2)cc1 (racemic),–
230,CN(C)c1cccc(CC(=O)N[C@H]2CNC[C@@H]2c2ccc(C(F)(F)F)cc2)c1 (racemic),–
3700,Cc1ccc(CC(=O)N[C@H]2CNC[C@@H]2c2ccc(C(F)(F)F)cc2)cn1 (racemic),–
600,CC(C)c1ccc(CC(=O)N[C@H]2CNC[C@@H]2c2ccc(C(F)(F)F)cc2)cc1 (racemic),–
120,CN(C)c1ccc(CC(=O)N[C@@H]2CNC[C@H]2c2ccc(C(F)(F)F)c(Cl)c2)cc1,–
–,CN(C)c1ccc(CC(=O)N[C@H]2CNC[C@@H]2c2ccc(C(F)(F)F)cc2)cc1 (racemic),IC50 [1]: 96 nM
2200,COc1ccc(CC(=O)N[C@H]2CNC[C@@H]2c2ccc(C(F)(F)F)cc2)cn1 (racemic),–
140,CN(C)c1ccc(CC(=O)N[C@@H]2CNC[C@H]2c2ccc(Br)cc2)cc1,–
2000,O=C(Cc1ccccc1)N[C@H]1CNC[C@@H]1c1ccc(C(F)(F)F)cc1 (racemic),–
3600,COc1ccc(CC(=O)N[C@H]2CNC[C@@H]2c2ccc(C(F)(F)F)cc2)nc1 (racemic),–
270,CN(C)c1ccc(CC(=O)N[C@@H]2CNC[C@H]2c2cc3cc(F)ccc3o2)cc1,–

SMILES,"IC50 [1, 6] [nM]",also measured
C[C@@H]1CC[C@H]2[C@@H](C)C(=O)O[C@@H]3O[C@@]4(C)CC[C@@H]1[C@]32OO4 [ARTEMISININ],33,–
CN(C)c1ccc(CC(=O)N[C@H]2CNC[C@@H]2c2ccc(S(F)(F)(F)(F)F)cc2)cc1,1200,–

# Reference: ChEMBL document CHEMBL4665665, “4-Aryl Pyrrolidines as Novel Orally Efficacious Antimalarial Agents. Part 2: 2-Aryl-N-(4-arylpyrrolidin-3-yl)acetamides” (ACS Med Chem Lett, 2019)
